# Measurements taken from patent publication US7115380B2, “Applications of peptides derived from the cytoplasmic domain of amyloid precursor protein (APP)” (Centre National de la Recherche Scientifique, priority 1999, dated 2006).
# Where a SMILES comes first, the peptide text is derived from it. The star is where a group is joined. Cbz = O=C(OCc1ccccc1)*; CH2F = FC*
# Experiments:
# [1] = test system: E15 rat cortical neurones; test: Cell death by TUNEL in E15 rat cortical neurones (FIG. 3); format: cell-based
# Description: (§1) Cortical and corticostriatal neurons are prepared, as described previously (Lafont et al., Development, 1992, 114, 17–29, ), from E14, mouse embryos or from E15, rat embryos.
# (§2) Briefly, the dissociated cells are plated out onto polyornithine-coated plastic plates (ELISA-type plates) at a density of 5,000, cells per well, and incubated in a suitable medium supplemented with hormones, proteins and salts.
# (§3) All the peptides are added to the cells two hours after the latter have been plated out. The internalization is verified by confocal microscopy after immunolabeling (Pmyc) or detection of biotin (Jcasp and its variants).
# (§4) The internalization and the intracellular stability of Jcasp, Pmyc and J(Y→D)Casp are identical. The irreversible caspase inhibitors zVAD-fmk (100 μM) and zDEVD-fmk (200 μM) (Calbiochem, France) are added 1 hour before addition of the peptide.
# (§5) The apoptotic cells are detected by TUNEL labeling (fluorescein or alkaline phosphatase kits) as described by the supplier (Roche Diagnostics, France).
# (§6) For each condition, 600 to 800 cells are counted three times.
# (§7) The statistical analysis is carried out with ANOVA and the Scheffé test.
# Peptide Jcasp induces neuronal apoptosis. Two hours after plating out onto plates, peptide Jcasp is added to the E15 rat cortical neurones and cell death is evaluated by the TUNEL effect, 24 hours later.
# [2] = test system: actin cleavage by caspase 3 in neurons; test: Quantification of actin cleavage by caspase 3 using anti-fractin antibody (FIGS. 4 and 5); format: cell-based, mouse or rat; settings: for actin cleavage (percentage of fractin-positive neurons): 24 h, triplicate
# Description: (§8) For the immunodetection of the fractin or of the p20 subunit of caspase 3 (Pharmingen), the cells are fixed with 4% paraformaldehyde (30 minutes, room temperature), washed three times with PBS and saturated for 1 hour at 37° C. with 10% fetal calf serum (FCS) in PBS containing 0.2% of Triton X 100.
# (§9) Purified primary antibodies directed against fractin or p20 are diluted (in PBS-FCS) 2000-fold and 500-fold, respectively, incubated overnight at 4° C. washed three times and incubated with biotinylated anti-rabbit antibodies.
# (§10) The detection is carried out using the alkaline phosphatase amplification kit (Vector, France).
# as §6, §7
# FIGS. 4 and 5 illustrate the quantification of the actin cleavage by caspase 3 using the anti-fractin antibody, by immunocytochemistry after fixing the cells with paraformaldehyde (F. Yang et al., Am. J. Pathol., 1998, 152, 2, 379–389). The anti-fractin antibody specifically recognizes actin cleaved by caspase 3. The percentage of fractin-positive neurons was determined after 24 h of internalization of the peptides, by counting approximately 1000 cells per well in triplicate.
# [3] = test system: p20 subunit of caspase 3 in mouse cortical embryonic neurons; test: Immunoreactivity for the p20 subunit of caspase 3 (FIGS. 6 and 7); format: cell-based; settings: inhibitor with peptide Jcasp
# Description: as §8, §9, §10, §6, §7
# In order to verify that caspase 3 is effectively involved in the apoptosis caused by peptide Jcasp, use is made of the fact that this enzyme (caspase 3) is synthesized in the form of a propetide (37 kDa) which, after stimulation, generates an active subunit of 17–22 kDa (p20).
# Immunoreactivity for p20 is examined in mouse cortical embryonic neurons cultured for 24 hours in the presence of several peptides. FIG. 6 illustrates the immunoreactivity for the p20 protein and FIG. 7 quantifies the induction of the p20.
# [4] = test system: neurons (primary culture); test: Quantification of DNA cleavage by TUNEL 24 h after internalization of the peptides (FIG. 2); format: cell-based, mouse or rat; settings: for DNA cleavage (percentage of TUNEL-positive cells): triplicate, p<0.0001
# Description: as §1, §2, §3, §4, §5, §6, §7
# Peptide G was internalized at 2 concentrations (1X and 2X) and peptide Gcasp (or Jcasp) was internalized at the 1X concentration, in the presence or absence of the caspase inhibitor zVAD.
# Each condition was tested in triplicate. The percentage of positive cells was evaluated after 24 h by counting approximately 1000 cells per well.
# [5] = test system: cortical and corticostriatal neurons; test: Internalization of peptides into primary cultures of neurons: toxicity, neurite growth, neuronal death; format: cell-based, mouse or rat
# Description: as §1, §2
# The internalization conditions are the same as those described in International Application WO 97/12912.
# as §3
compound,measurement,setting,value
COC(=O)CC[C@H](NC(=O)[C@H](CC(=O)OC)NC(=O)OCc1ccccc1)C(=O)N[C@H](C(=O)N[C@@H](CC(=O)OC)C(=O)CF)C(C)C [zDEVD-fmk],effect on basal cell death (TUNEL),"[1]; inhibitor at 200 μM, added 1 hour before peptide",weak effect
same,inhibition of DNA fragmentation induced by peptide Jcasp,"[1]; inhibitor at 200 μM, Jcasp at 1.2 μM and 2.4 μM",inhibits the DNA fragmentation
same,effect on actin cleavage induced by peptide Jcasp (FIG. 5),[2]; inhibitor with peptide Jcasp,inhibits the actin cleavage
same,effect on activation of p20 by peptide Jcasp,[3],significantly decreases the activation of p20
COC(=O)C[C@H](NC(=O)[C@H](C)NC(=O)[C@@H](NC(=O)OCc1ccccc1)C(C)C)C(=O)CF [zVAD-fmk] (Cbz-Val-Ala-Asp(OMe)-CH2F),effect of caspase inhibitor on peptide-induced increase in DNA cleavage (TUNEL),[4]; with peptide G or Jcasp,inhibits this increase in cleavage
same,effect on endogenous cleavage of actin by caspases of neurones,[2]; inhibitor alone,inhibits all endogenous cleavage
same,effect on the peptide-induced increase in actin cleavage,"[2]; with G1X, G2X and Gcasp1X, p<0.0001, inhibition not complete",significantly inhibits the increase
Pmyc: SEQ ID NO: 5 + peptide corresponding to the MYC sequence [EQKLISEED]; no relation to APP (KQIKIWFQNRRMKWKKEQKLISEED; listed as Homo sapiens),DNA fragmentation / number of TUNEL-positive cells,"[1]; 24 hours, concentration not given",no effect
"peptide E: SEQ ID NO: 5 + domain E (VDAAVTPEE, SEQ ID NO: 6), APP positions 663–671 (KQIKIWFQNRRMKWKKVDAAVTPEE; listed as Homo sapiens)",effect on neurite growth after internalization,[5]; internalization into neurons,no effect
"peptide G: KQYTSIHHG, APP positions 651–659 (SEQ ID NO: 2, Y0 null), tested with Y1 = penetratin SEQ ID NO: 5 (KQIKIWFQNRRMKWKKKQYTSIHHG; listed as Homo sapiens)",effect on neurite growth after internalization,[5]; concentrations lower than one μM,reproduces the effects of the intact C-terminal domain
same,pro-apoptotic nature after internalization,[5]; internalized into neurons,pro-apoptotic
same,DNA cleavage (percentage of TUNEL-positive cells),[4]; concentration 1X,significant increase
same,DNA cleavage (percentage of TUNEL-positive cells),[4]; concentration 2X,significant increase
same,actin cleavage (percentage of fractin-positive neurons),[2]; 1X,significant increase
same,actin cleavage (percentage of fractin-positive neurons),"[2]; 2X, p<0.0001",significant increase
"peptide H: SEQ ID NO: 5 + domain H (NGYENPTYK, SEQ ID NO: 7), APP positions 680–688 (KQIKIWFQNRRMKWKKNGYENPTYK; listed as Homo sapiens)",effect on neurite growth after internalization,[5]; internalization into neurons,no effect
